Laboratory results: US7446125B2, “Derivatives of nitroproline compounds, processes of manufacture and uses in the treatment of integrin mediated disorders” (Universidad del Pais Vasco, priority 2005, dated 2008)
One block for each compound: values may come before it.

Experiments:
VLA-4 [1] = target: T1, VLA-4 (Mus musculus, UniProt P09055+Q00651); experiment: B16M (MB16) melanoma cell adhesion to primary cultured hepatic sinusoidal endothelial (HSE) cells; assay type: cell-based, murine; conditions: B16M cells preincubated with compound, 50 μg/1×10^6 MB16 cells; TNF-alpha-treated HSE or H2O2-treated B16M cells; FIG. 6
T1 construct: The tumor used is the B16F10 subline of MB16, the VLA-4 expression of which is constitutive; endogenous in cells; host or cells: B16F10 (MB16/B16M) murine melanoma cells; VCAM-1 on primary mouse HSE cells
T1 sequence (Q00651 41-1039): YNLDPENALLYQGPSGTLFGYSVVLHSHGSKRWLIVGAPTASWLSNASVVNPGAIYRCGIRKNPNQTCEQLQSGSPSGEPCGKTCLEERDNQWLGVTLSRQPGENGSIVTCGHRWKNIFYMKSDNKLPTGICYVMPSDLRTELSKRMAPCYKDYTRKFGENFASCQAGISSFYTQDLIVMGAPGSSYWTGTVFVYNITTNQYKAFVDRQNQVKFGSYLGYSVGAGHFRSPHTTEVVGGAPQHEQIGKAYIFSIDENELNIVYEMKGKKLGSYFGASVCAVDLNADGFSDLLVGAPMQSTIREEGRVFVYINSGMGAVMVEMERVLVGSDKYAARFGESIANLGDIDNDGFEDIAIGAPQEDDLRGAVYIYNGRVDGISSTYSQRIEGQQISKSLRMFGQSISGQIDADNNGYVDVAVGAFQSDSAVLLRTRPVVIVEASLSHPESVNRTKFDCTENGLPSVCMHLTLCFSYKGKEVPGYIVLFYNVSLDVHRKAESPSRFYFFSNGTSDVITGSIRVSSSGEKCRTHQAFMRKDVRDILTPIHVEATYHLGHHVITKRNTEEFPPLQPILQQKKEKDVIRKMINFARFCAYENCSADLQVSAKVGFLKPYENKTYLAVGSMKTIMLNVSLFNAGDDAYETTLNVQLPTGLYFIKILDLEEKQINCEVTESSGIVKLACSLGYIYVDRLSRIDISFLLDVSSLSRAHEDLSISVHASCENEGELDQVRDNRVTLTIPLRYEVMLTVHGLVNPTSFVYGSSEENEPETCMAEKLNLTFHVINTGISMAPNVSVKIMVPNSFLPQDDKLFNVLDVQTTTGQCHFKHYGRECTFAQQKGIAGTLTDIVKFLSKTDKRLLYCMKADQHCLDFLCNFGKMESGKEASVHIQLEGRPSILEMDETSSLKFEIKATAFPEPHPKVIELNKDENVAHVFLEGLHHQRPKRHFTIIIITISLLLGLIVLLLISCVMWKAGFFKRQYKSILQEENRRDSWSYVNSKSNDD
T1 sequence (P09055 21-798): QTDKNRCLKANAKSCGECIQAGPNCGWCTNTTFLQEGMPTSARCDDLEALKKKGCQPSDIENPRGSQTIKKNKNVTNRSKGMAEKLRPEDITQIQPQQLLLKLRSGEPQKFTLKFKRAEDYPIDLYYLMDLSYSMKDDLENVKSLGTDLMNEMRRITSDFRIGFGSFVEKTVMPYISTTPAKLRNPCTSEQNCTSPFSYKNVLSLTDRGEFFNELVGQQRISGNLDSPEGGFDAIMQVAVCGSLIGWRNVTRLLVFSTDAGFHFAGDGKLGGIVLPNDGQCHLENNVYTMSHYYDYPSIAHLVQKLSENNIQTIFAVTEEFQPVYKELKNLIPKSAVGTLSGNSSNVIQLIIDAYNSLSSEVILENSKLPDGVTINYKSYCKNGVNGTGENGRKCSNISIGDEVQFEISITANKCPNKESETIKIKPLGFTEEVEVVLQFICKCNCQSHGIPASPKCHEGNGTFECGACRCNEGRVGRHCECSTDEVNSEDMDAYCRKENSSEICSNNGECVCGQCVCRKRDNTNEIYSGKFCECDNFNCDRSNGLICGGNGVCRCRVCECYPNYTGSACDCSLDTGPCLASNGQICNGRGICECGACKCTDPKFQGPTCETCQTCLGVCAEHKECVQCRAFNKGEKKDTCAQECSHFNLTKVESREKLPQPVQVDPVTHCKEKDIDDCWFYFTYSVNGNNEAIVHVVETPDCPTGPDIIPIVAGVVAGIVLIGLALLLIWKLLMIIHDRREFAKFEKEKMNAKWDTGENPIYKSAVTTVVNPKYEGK
Description: The tumor used is the B16F10 subline of MB16, the VLA-4 expression of which is constitutive.
The MB16 tumor cells (subline B16F10) are cultured in incubator at 37° C., with 5% CO2 atmosphere, in DMEM medium (Dulbecco's modified Eagle's medium), adjusted to pH 7.4 and supplemented with penicillin (100 U/ml), streptomycin (100 μg/ml) and 5% fetal bovine serum. The cells are maintained and subcultured according to a previously-described method (Vidal-Vanaclocha et al. Cancer Research, 1994, 54, 2667).
The hepatic sinusoidal cells are isolated from C57BU6J mice (males, age 6-8 weeks) supplied by IFFA Credo (L'Arbreole, France). For their purification and identification, the previously-described protocol is employed (Vidal-Vanaclocha et al. Hepatology, 1993, 18, 328-339). The primary HSE cell cultures are obtained by seeding the cells on a Type I collagen substrate (Sigma Chemicals Co, St Louis, Mo.) in the presence of DMEM, supplementing with penicillin (100 U/ml), streptomycin (100 μg/ml) and 10% fetal bovine serum, at 37° C. in 5% CO2 atmosphere.
The endothelial cells are isolated 24 hours prior to the adhesion test and are seeded on 24-well plate, maintaining them a minimum of 4 hours in free serum medium before incubating them with DMEM in the presence or not of 10 ng/ml TNF-α for 6 hours. The B16 cells are marked with 40 μg/ml of the BCECF-AM fluorescent probe (carboxyfluorescein, 2′,7′-bis-(2-carboxy-etyl)-5-(6)carboxyfluorescein aminoxymethyl ester), supplied by Molecular Probes Inc. (Oregon, USA). Afterward, a washing with DMEM medium without serum is performed to remove the excess flurorchromium, and the compounds of general formula I are incubated at 37° C. for 15 minutes at the concentration of 50 μg/1×10^6 MB16 cells. This is followed by two washings, the number of visible cells being calculated by means of the trypan blue dye exclusion test, and they are resuspended to a concentration of 2×10^5 cells/ml. One (1) ml of the MB16 cell suspension is added to each well on the primary HSE cell culture plate, and the co-cultures are incubated at 37° C. for 8 minutes. The percentage of cellular adhesion is calculated by means of a previously-described fluorescence measurement system (Vidal-Vanaclocha et al. Cancer Research, 1994, 54, 2667).
Next, the potential VLA-4 antagonism of compounds 11 was tested through a previously established model on VLA-4NCAM-1-interaction-dependent B16M cell adhesion to primary cultured hepatic sinusoidal endothelial (HSE) cells in vitro.

VLA-4 [2] = target: T1, VLA-4; experiment: B16M (MB16) cell adhesion to immobilized recombinant human VCAM-1; assay type: cell-based, murine; conditions: IL-1b (interleukin-1b)-treated melanoma cells; FIG. 3
[3] = test system: VEGF production by soluble VCAM-1-stimulated B16M cells; experiment: VEGF production by soluble VCAM-1-treated B16M cells in vitro; assay type: cell-based, murine; conditions: soluble VCAM-1-stimulated cells; FIG. 4
B16M cells [4] = experiment: Hepatic metastasis of intrasplenically injected, compound-pretreated B16M cells; assay type: in vivo, C57BU6J mice; conditions: mice intrasplenically injected with pretreated B16M cells relative to untreated cells; P<0.01; FIG. 7
Description: A description is provided in following of the effect of the le compound on the metastatic capacity of MB16 in in-vivo tests. For this purpose, the MB16 cells treated with le are inoculated intrasplenically in C57BU6J mice (3×10^5 viable cells per animal, resuspended in endotoxin-free sterile saline solution), and the microvascular retention within the first 18 hours and their ability to develop metastasis on day 12 following the tumor injection is determined.
(§1) B16M cells were cultured for 24 hours in the presence 50 μg/ml of compound 11d, or […] anti-murine VLA-4 antibody. Cultured cells were fixed and processed for the immunohistochemical detection of Ki-67 antigen expression. Next, a computed-aid microscopic image analysis system was used to discriminate stained cells (brown nuclei) and calculate the average number of Ki-67 antigen-expressing cells per 1×10^4 cells. The results are the mean±SD of 6 independent fields, from 3 different experiments (n=18).

Solubility in water = assay type: physicochemical; conditions: compared with 11f
B16M cells [5] = experiment: Cell viability, cytotoxicity, intracellular oxidative metabolism and proliferation rate of treated melanoma cells; assay type: cell-based, murine
Description: as §1

melting point: 119 to 120 °C
SMILES: CC(C)[C@H](OCc1ccccc1)[C@H]1[C@H]([N+](=O)[O-])[C@H](C(C)(C)C)N[C@@H]1C(=O)NCC(=O)O [Compound 11b, 2-[(2S,3R,4S,5S)-5-tert-Butyl-3-[(S)-1-(benzyloxy)-2-methylpropyl]-4-nitropyrrolidine-2-carboxamido]acetic acid]
antiadhesive activity (B16M cell adhesion to HSE cells) (VLA-4 [1]): did not show any significant antiadhesive activity

adhesion of melanoma cells to immobilized VCAM-1 (VLA-4 [2]): completely abrogated
solubility in water (Solubility in water): higher solubility in water
SMILES: CC[C@H](C)[C@H](OCc1ccccc1)[C@H]1[C@H]([N+](=O)[O-])[C@H](c2ccccc2)N[C@@H]1C(=O)NCC(=O)O [Compound 11d, 2-[(2S,3R,4S,5S)-3-[(1S,2S)-1-(Benzyloxy)-2-methylbutyl]-4-nitro-5-phenyl-pyrrolidine-2-carboxamido]acetic acid]
antiadhesive activity (B16M cell adhesion to HSE cells) (VLA-4 [1]): comparable antiadhesive activity to monoclonal antibodies against murine VLA-4
VEGF production induced by soluble VCAM-1 [3]: prevented
decrease of metastasis density (B16M cells [4]): 60%
decrease of metastasis volume (B16M cells [4]): 95%
cell viability and cytotoxicity, intracellular oxidative metabolism, cell-proliferation rates (B16M cells [5]): excluded that antimetastatic effects of 11d compound may have been caused by indirect effects on cell functions

antiadhesive activity (B16M cell adhesion to HSE cells) (VLA-4 [1]): almost inactive
SMILES: CC(C)[C@H](OCc1c(F)cccc1F)[C@H]1[C@H]([N+](=O)[O-])[C@H](c2ccccc2)N[C@@H]1C(=O)NCC(=O)O [Compound 11e, 2-[(2S,3R,4S,5S)-3-[(S)-1-(2,6-Difluorobenzyloxy)-2-methylpropyl]-4-nitro-5-phenyl-pyrrolidine-2-carboxamido]acetic acid]

antiadhesive activity (B16M cell adhesion to HSE cells) (VLA-4 [1]): best activity in vitro
SMILES: CC[C@H](C)[C@H](OCc1ccccc1)[C@H]1[C@H]([N+](=O)[O-])[C@H](C2CCCCC2)N[C@@H]1C(=O)NCC(=O)O [Compound 11f, 2-[(2S,3R,4S,5S)-3-[(1S,2S)-1-(benzyloxy)-2-methylbutyl]-5-cyclohexyl-4-nitropyrrol-idine-2-carboxamido]acetic acid]

SMILES: CC[C@H](C)[C@H](OCc1ccccc1)[C@H]1[C@H]([N+](=O)[O-])[C@H](C2CC2)N[C@@H]1C(=O)NCC(=O)O [Compound 11h, 2-[(2S,3R,4S,5S)-3-[(1S,2S)-1-(benzyloxy)-2-methylbutyl]-5-cyclopropyl-4-nitropyrrol-idine-2-carboxamido]acetic acid]
antiadhesive activity (B16M cell adhesion to HSE cells) (VLA-4 [1]): did not show any significant antiadhesive activity

SMILES: CC[C@H](C)[C@H](OCc1ccccc1)[C@@H]1[C@H]([N+](=O)[O-])[C@H](c2ccccc2)N[C@]1(C)C(=O)NCC(=O)O [Compound 11j, 2-[(2S,3R,4S,5S)-3-[(1S,2S)-1-(Benzyloxy)-2-methylbutyl]-2-methyl-4-nitro-5-phenyl-pyrrolidine-2-carboxamido]acetic acid]
antiadhesive activity (B16M cell adhesion to HSE cells) (VLA-4 [1]): did not result in a significant loss of activity
